One compound from patent US12233129B2, “Methods and compositions for the treatment of cancer” (priority 2019, dated 2025) can be followed below.

Assay type in all cases: cell-based, human
One data set relates to HCT-116. To be noted: 10 days. The method, then:
(§1) Because colon cancer cells develop resistance to chemotherapy after an initial response, we decided to investigate whether VTD can potentiate the cytotoxic effect of 5-FU when cells receiving long-term therapy mimicking the in vivo therapy. Cells were treated with VTD for 10 days.
(§2) Based on the significant effect of long-term exposure in LoVo and U2OS, we hypothesized that VTD could be a potential complementary strategy alongside 5-FU, an effective drug with a high rate of resistant events in colon tumors. To answer this question, we first determined the minimum concentration of 5-FU that has no effect or a very mild effect on cell viability after 10 days' exposure in three cell lines HCT-116, LoVo, and U2OS (data not shown). We performed the 10 days' treatment using a combination of a low dose of VTD (50 μM or 100 μM) plus a suboptimal dose of 5-FU (1 μM or 5 μM).
(§3) FIG. 20: Sensitization of colon cancer cells to a long-term suboptimal dose of 5-fluorouracil exposure when combined with VTD. (A-D) (A) HCT-116, (B) LoVo, (C) SW-480, and (D) U2OS were treated with VTD (10-300 μM) for 10 days. […] (E-G) (E) HCT-116, (F) LoVo, and (G) U-2OS were treated with suboptimal doses of 5-FU and VTD (50 and 100 μM) for 10 days. […] (H-I) A series of flow cytometry assays using an antibody against the CD44 cancer stem cell marker illustrated that VTD can target CD44+ colon cancer stem cells and eventually eliminate them in a dose-dependent manner, implicating VTD as a potential cancer stem cell-targeting therapy. (J) Tumor tissue lysates from 48 patients with colon cancer along the matched adjacent normal colon tissue lysates were probed with anti-UBXN2A and anti-Actin antibodies, followed by quantitation and normalization of signals. […] (I) The proposed mechanism action of VTD. VTD increases the expression of UBXN2A, which releases the p53 from mot-2's sequestration and, together with standard chemotherapy, can cause an effective tumor suppression.

Another data set deals with U2OS. Conditions: 10 days. The method, then:
as §1, §2, §3

A further data set has as its system LoVo. To be noted: 10 days. The method, then: as §1, §2, §3
For a further data set, the system named is UBXN2A. Briefly: Western blot of UBXN2A protein in treated HCT-116 cells. To be noted: VTD 20 and 40 μM, 24 hours. The method, then:
Our in vivo results encouraged us to screen for compounds that can enhance expression of UBXN2A. Using the UBXN2A promoter upstream of a luciferase construct that was transiently transfected to HCT-116 cells, we performed a high-throughput drug screen with 1800 FDA approved drugs, synthetic compounds, and natural products. Forty-eight hours after transfection, cells were treated with compounds for 24 hours in triplicate (FIG. 16A). […] We looked at protein expression of UBXN2A as well as P47 (another member of the UBXD family) to confirm the selectivity of VH as a selective enhancer of UBXN2A protein in cells. […] We observed a different level of VH-dependent UBXN2A induction in different segments of the gastrointestinal system (esophagus to rectum; data not shown).
The alkaloid fraction of Veratrine is known to contain a mixture of two major alkaloid esters: Veratridine (VTD) and Cevadine. VTD, with a veratroyl group at the 3-OR1 position and a free hydroxyl group at the 15-O-R2 position can function as an antihypertensive plant-derived substance. […]
A cell-based screen was conducted in search of compounds that induce the expression of the UBXN2A gene. […] A glow luciferase activity assay was conducted in triplicate followed by semi-quantitative RT-PCR and WB analysis for UBXN2A, p47 (negative control), or GAPDH± Veratrine or its purified form VTD. […]
In general terms: In western blotting, separated proteins are transferred to a membrane and probed.

Setting [1] is: VTD 50 or 100 μM plus 5-FU 1 or 5 μM.

Entries after “also recorded” stand apart in the source; their conditions may differ.

In the case of `COc1ccc(C(=O)O[C@H]2CC[C@@]3(C)[C@@H]4CC[C@H]5[C@]6(O)C[C@H](O)[C@@]7(O)[C@@H](CN8C[C@@H](C)CC[C@H]8[C@@]7(C)O)[C@]6(O)C[C@@]53O[C@]24O)cc1OC` [VTD, Veratridine], the results for the “cell viability, long-term exposure” value in the data set with HCT-116 (VTD 10-300 μM), with U2OS (VTD 10-300 μM) and in the data set on LoVo (VTD 10-300 μM) were “only responded to a high concentration of VTD”, “significant decrease in cell viability in a dose-dependent manner” and “significant decrease in cell viability in a dose-dependent manner”, respectively. The “cytotoxic effect of suboptimal 5-FU in presence of VTD” value with HCT-116 (setting [1]), in the data set on U2OS (setting [1]) and in the data set with LoVo (setting [1]) was “significantly potentiated the cytotoxic effect of the suboptimal dose of 5-FU” each time. The “UBXN2A protein expression (WB)” value in the data set on UBXN2A is “induces UBXN2A expression in a dose-dependent manner; also recorded: increases UBXN2A protein levels in a dose-dependent manner”.
